Reference: US5399699A, “Indole iminooxy derivatives which inhibit leukotriene biosynthesis” (Abbott Laboratories, priority 1994, dated 1995)

Assays:
leukotriene biosynthesis = experiment: Inhibition of leukotriene biosynthesis in vivo, rat peritoneal anaphylaxis model, oral administration; settings: 1 h, by gavage one hour prior to antigen challenge
Description: Inhibition of the biosynthesis of leukotrienes in vivo after oral administration of compound was determined using a rat peritoneal anaphylaxis model in a similar manner as that described by Young and coworkers (Young, P. R.; Dyer, R. D.; Carter, G. W. Fed. Proc., Fed. Am. Sec. Exp. Biol. 1985, 44, 1185). In this model rats were injected intraperitoneally (ip) with rabbit antibody to bovine serum albumin (BSA) and three hours later injected ip with BSA to induce an antigen-antibody response. Rats were sacrificed 15 minutes after this challenge and the peritoneal fluids were collected and analyzed for leukotriene levels. Test compounds were administered by gavage one hour prior to the antigen challenge. Percent inhibition values were determined by comparing the treatment group to the mean of the control group.

[1] = test system: LTB4 biosynthesis in human polymorphonuclear leukocytes (PMNL); experiment: Inhibition of calcium ionophore (A23187)-induced LTB4 biosynthesis in human PMNL; assay type: cell-based; settings: 15 min preincubation at 37° C., A23187 8.3 μM, 10 min, LTB4 by HPLC
Description: Inhibition of leukotriene biosynthesis was evaluated in assays, involving calcium ionophore-induced LTB4 biosynthesis expressed by human polymorphonuclear leukocytes (PMNL) or human whole blood. Human PMNL were isolated from heparinized (20 USP units/mL) venous blood using Ficoll-Hypaque Mono-Poly Resolving Medium. Human PMNL suspensions (5×10^6 cells/250 μL) were preincubated with test compounds or vehicle for 15 min at 37° C. followed by calcium ionophore A23187 challenge (final concentration of 8.3 μM) and the reaction terminated after 10 min by adding two volumes of methanol containing prostaglandin B2 as an internal recovery standard. The methanol extracts were analyzed for LTB4 content by HPLC.

SMILES	ED50 (leukotriene biosynthesis) [mg/kg]	IC50 [1] [nM]
CC(C)(CON=CC(=O)O)Cc1c(SC(C)(C)C)c2cc(OCc3ccc4ccccc4n3)ccc2n1Cc1ccc(Cl)cc1 [Example 1]	0.9	10
CC(=NOCC(C)(C)Cc1c(SC(C)(C)C)c2cc(OCc3ccc4ccccc4n3)ccc2n1Cc1ccc(Cl)cc1)C(=O)O [Example 2, 1-(4-chlorobenzyl)-3-(t-butylthio)-5-(2-quinolinemethoxy)indol-2-yl(2,2-dimethyl)prop-3-yl-iminooxy-2-propionic acid]		10
CC(=NOCC(C)(C)Cc1c(SC(C)(C)C)c2cc(OCc3cscn3)ccc2n1Cc1ccc(Cl)cc1)C(=O)O [Example 5, 1-(4-chlorobenzyl)-3-(t-butylthio)-5-(4-thiazolylmethoxy)indol-2-yl-(2,2-dimethyl)prop-3-yliminooxy-2-propionic acid]		8
CC(C)(CON=CC(=O)O)Cc1c(SC(C)(C)C)c2cc(OCc3ccc4ccccc4n3)ccc2n1Cc1ccc(F)cc1 [Example 6, 1-(4-fluorobenzyl)-3-(t-butylthio)-5-(2-quinolinylmethoxy)indol-2-yl-(2,2-dimethyl)prop-3-yliminooxyacetic acid]		5
